Among the data in PMC9848257, “Design and synthesis of novel rigid dibenzo[b,f]azepines through ring closure technique as promising anticancer candidates against leukaemia and acting as selective topoisomerase II inhibitors and DNA intercalators” (Journal of Enzyme Inhibition and Medicinal Chemistry, 2023) are inhibition and melting point values, retold here.

The structures appear in SMILES notation.

One series has as its system PC-3. The series is described as follows: NCI-60 one-dose screen, PC-3. Type of series: cell-based. Conditions: Homo sapiens; PC-3, prostate cancer; single dose 10 μM; read-out: Growth inhibition %. As for the experimental part: (§1) Anti-proliferative effects of the counterparts 4a–g and 5a–g were screened against 60 human cancer cell lines, following the Developmental Therapeutics Program protocol, National Cancer Institute[35].
(§2) The anti-tumour activity of the fourteen synthesised congeners was investigated at the NCI against a panel of 60 cancer cell lines (NCI-60 Cell One-Dose Screen). The tested dibenzo[b,f]azepine derivatives were screened at a single dose level (10 μM), Table 1.

The test system of a further series is NCI-H322M. As to the kind of experiment: NCI-60 one-dose screen, NCI-H322M. Conditions: Homo sapiens, non-small cell lung cancer, single dose 10 μM, read-out: Growth inhibition %. Type of series: cell-based. As for the experimental part: as §1, §2
A further series deals with SK-MEL-28. The series is described as follows: NCI-60 one-dose screen, SK-MEL-28. Type of series: cell-based. Particulars: Homo sapiens; SK-MEL-28, melanoma; single dose 10 μM; read-out: Growth inhibition %. As for the experimental part:
as §1, §2

The subject of a further series is M14. The series is described as follows: NCI-60 one-dose screen, M14. The series is classed as cell-based. Particulars: Homo sapiens; M14, melanoma; single dose 10 μM; read-out: Growth inhibition %. As for the experimental part: as §1, §2
The next series has as its system NCI/ADR-RES. As to the kind of experiment: NCI-60 one-dose screen, NCI/ADR-RES. Conditions: Homo sapiens, ovarian cancer, single dose 10 μM, read-out: Growth inhibition %. Type of series: cell-based. On the procedure: as §1, §2
The subject of another series is MOLT-4. The series is described as follows: NCI-60 one-dose screen, MOLT-4. Type of series: cell-based. Conditions: Homo sapiens; MOLT-4, leukaemia; single dose 10 μM; read-out: Growth inhibition %. On the procedure:
as §1, §2

A further series relates to K-562. The series is described as follows: NCI-60 one-dose screen, K-562. The series is classed as cell-based. Particulars: Homo sapiens, K562; K-562, leukaemia; single dose 10 μM; read-out: Growth inhibition %. On the procedure: as §1, §2
The next series has as its system SF-295. The series is described as follows: NCI-60 one-dose screen, SF-295. Particulars: Homo sapiens; SF-295, CNS cancer; single dose 10 μM; read-out: Growth inhibition %. The series is classed as cell-based. On the procedure:
as §1, §2

Another series relates to SK-MEL-2. As to the kind of experiment: NCI-60 one-dose screen, SK-MEL-2. The series is classed as cell-based. Conditions: Homo sapiens; SK-MEL-2, melanoma; single dose 10 μM; read-out: Growth inhibition %. On the procedure: as §1, §2
The test system of a further series is NCI-H226. The series is described as follows: NCI-60 one-dose screen, NCI-H226. Type of series: cell-based. Particulars: Homo sapiens; NCI-H226, non-small cell lung cancer; single dose 10 μM; read-out: Growth inhibition %. On the procedure: as §1, §2
The test system of the next series is OVCAR-5. The series is described as follows: NCI-60 one-dose screen, OVCAR-5. The series is classed as cell-based. Conditions: Homo sapiens; OVCAR-5, ovarian cancer; single dose 10 μM; read-out: Growth inhibition %. On the procedure: as §1, §2
The next series relates to UO-31. The series is described as follows: NCI-60 one-dose screen, UO-31. The series is classed as cell-based. Particulars: Homo sapiens; UO-31, renal cancer; single dose 10 μM; read-out: Growth inhibition %. On the procedure:
as §1, §2

The next series deals with 786-0. As to the kind of experiment: NCI-60 one-dose screen, 786-0. Type of series: cell-based. Particulars: Homo sapiens; 786-0, renal cancer; single dose 10 μM; read-out: Growth inhibition %. As for the experimental part:
as §1, §2

In a further series the test system is IGROV1. The series is described as follows: NCI-60 one-dose screen, IGROV1. The series is classed as cell-based. Conditions: Homo sapiens, IGROV-1; IGROV1, ovarian cancer; single dose 10 μM; read-out: Growth inhibition %. On the procedure: as §1, §2
The next series has as its system RXF 393. The series is described as follows: NCI-60 one-dose screen, RXF 393. The series is classed as cell-based. Particulars: Homo sapiens; RXF 393, renal cancer; single dose 10 μM; read-out: Growth inhibition %. As for the experimental part: as §1, §2
The next series concerns SW-620. As to the kind of experiment: NCI-60 one-dose screen, SW-620. The series is classed as cell-based. Particulars: Homo sapiens; SW-620, colon cancer; single dose 10 μM; read-out: Growth inhibition %. On the procedure: as §1, §2
In a further series the test system is MDA-MB-231-ATCC. As to the kind of experiment: NCI-60 one-dose screen, MDA-MB-231-ATCC. Conditions: Homo sapiens, breast cancer, single dose 10 μM, read-out: Growth inhibition %. The series is classed as cell-based. On the procedure:
as §1, §2

A further series has as its system MCF-7. As to the kind of experiment: NCI-60 one-dose screen, MCF-7. The series is classed as cell-based. Conditions: Homo sapiens, MCF7; MCF-7, breast cancer; single dose 10 μM; read-out: Growth inhibition %. On the procedure: as §1, §2
In another series the test system is TK-10. As to the kind of experiment: NCI-60 one-dose screen, TK-10. Type of series: cell-based. Conditions: Homo sapiens; TK-10, renal cancer; single dose 10 μM; read-out: Growth inhibition %. On the procedure: as §1, §2
The test system of a further series is HCT-116. The series is described as follows: NCI-60 one-dose screen, HCT-116. Type of series: cell-based. Particulars: Homo sapiens; HCT-116, colon cancer; single dose 10 μM; read-out: Growth inhibition %. As for the experimental part:
as §1, §2

The next series has as its system SK-OV-3. As to the kind of experiment: NCI-60 one-dose screen, SK-OV-3. The series is classed as cell-based. Particulars: Homo sapiens; SK-OV-3, ovarian cancer; single dose 10 μM; read-out: Growth inhibition %. On the procedure:
as §1, §2

For the next series, the system named is MDA-MB-468. The series is described as follows: NCI-60 one-dose screen, MDA-MB-468. Type of series: cell-based. Conditions: Homo sapiens; MDA-MB-468, breast cancer; single dose 10 μM; read-out: Growth inhibition %. On the procedure: as §1, §2
A further series concerns SF-539. The series is described as follows: NCI-60 one-dose screen, SF-539. The series is classed as cell-based. Conditions: Homo sapiens; SF-539, CNS cancer; single dose 10 μM; read-out: Growth inhibition %. On the procedure:
as §1, §2

For the compound `O=C(NNC(=O)N1c2ccccc2C=Cc2ccccc21)c1ccccc1` [Compound 4a, N′-Benzoyl-5H-dibenzo[b,f]azepine-5-carbohydrazide], the melting point was in the range of 222 to 224 °C. In the series on PC-3, the inhibition at 10 µM is < 10%. Besides, the inhibition at 10 µM with NCI-H322M is < 10%. Moreover, the inhibition at 10 µM with SK-MEL-28 was < 10%. Moreover, the inhibition at 10 µM in the series on M14 was < 10%. Further, the inhibition at 10 µM in the series on NCI/ADR-RES is < 10%. In the series with MOLT-4, the inhibition at 10 µM was < 10%. In the series with K-562, the inhibition at 10 µM is < 10%. In the series with SF-295, the inhibition at 10 µM is < 10%. In addition, the inhibition at 10 µM with SK-MEL-2 was < 10%. Moreover, the inhibition at 10 µM in the series with NCI-H226 is < 10%. In addition, in the series on OVCAR-5, the inhibition at 10 µM was < 10%. For the same compound, the inhibition at 10 µM in the series on UO-31 was < 10%. Besides, the inhibition at 10 µM in the series with 786-0 was < 10%. Further, the inhibition at 10 µM in the series on IGROV1 is < 10%. Further, the inhibition at 10 µM in the series with RXF 393 is < 10%. In addition, the inhibition at 10 µM in the series on SW-620 was < 10%. For the same compound, in the series with MDA-MB-231-ATCC, the inhibition at 10 µM was < 10%. In addition, in the series with MCF-7, the inhibition at 10 µM is < 10%. Besides, in the series on TK-10, the inhibition at 10 µM is < 10%. Moreover, the inhibition at 10 µM in the series with HCT-116 is < 10%. Moreover, the inhibition at 10 µM in the series on SK-OV-3 is < 10%. Further, the inhibition at 10 µM in the series on MDA-MB-468 was < 10%. Moreover, in the series on SF-539, the inhibition at 10 µM was < 10%.
As for `O=C(NNC(=O)N1c2ccccc2C=Cc2ccccc21)c1ccc(Br)cc1` [Compound 4b, N′-(4-Bromobenzoyl)-5H-dibenzo[b,f]azepine-5-carbohydrazide], the melting point was in the range of 237 to 239 °C. The inhibition at 10 µM with PC-3 was < 10%. Also, in the series with NCI-H322M, the inhibition at 10 µM was < 10%. Moreover, the inhibition at 10 µM in the series on SK-MEL-28 was < 10%. Further, in the series with M14, the inhibition at 10 µM was < 10%. Further, the inhibition at 10 µM in the series on NCI/ADR-RES is < 10%. Moreover, the inhibition at 10 µM in the series on MOLT-4 was < 10%. In the series on K-562, the inhibition at 10 µM is < 10%. In addition, in the series on SF-295, the inhibition at 10 µM was < 10%. The inhibition at 10 µM in the series on SK-MEL-2 is < 10%. The inhibition at 10 µM with NCI-H226 was < 10%. Also, the inhibition at 10 µM in the series on OVCAR-5 is < 10%. Also, the inhibition at 10 µM with UO-31 is < 10%. The inhibition at 10 µM with 786-0 came to 21.1%. In addition, in the series on IGROV1, the inhibition at 10 µM was < 10%. The inhibition at 10 µM in the series on RXF 393 was < 10%. Also, the inhibition at 10 µM with SW-620 came to 11.8%. The inhibition at 10 µM in the series on MDA-MB-231-ATCC is < 10%. Further, in the series on MCF-7, the inhibition at 10 µM is < 10%. Moreover, the inhibition at 10 µM with TK-10 was < 10%. Besides, in the series with HCT-116, the inhibition at 10 µM is < 10%. Besides, in the series with SK-OV-3, the inhibition at 10 µM is < 10%. In addition, in the series with MDA-MB-468, the inhibition at 10 µM was < 10%. In addition, the inhibition at 10 µM in the series with SF-539 is < 10%.
Regarding `O=C(NNC(=O)N1c2ccccc2C=Cc2ccccc21)c1ccc(Cl)cc1` [Compound 4c, N′-(4-Chlorobenzoyl)-5H-dibenzo[b,f]azepine-5-carbohydrazide], the melting point lay in the range of 229 to 231 °C. Further, the inhibition at 10 µM in the series with PC-3 is < 10%. Further, in the series with NCI-H322M, the inhibition at 10 µM is < 10%. Further, the inhibition at 10 µM in the series on SK-MEL-28 was < 10%. Also, in the series with M14, the inhibition at 10 µM is < 10%. Also, the inhibition at 10 µM with NCI/ADR-RES is < 10%. In addition, in the series on MOLT-4, the inhibition at 10 µM was < 10%. Besides, the inhibition at 10 µM with K-562 is < 10%. The inhibition at 10 µM with SF-295 was < 10%. The inhibition at 10 µM in the series on SK-MEL-2 was < 10%. In addition, the inhibition at 10 µM with NCI-H226 was < 10%. The inhibition at 10 µM in the series on OVCAR-5 is < 10%. The inhibition at 10 µM in the series on UO-31 is < 10%. Besides, the inhibition at 10 µM with 786-0 was < 10%. Also, the inhibition at 10 µM in the series with IGROV1 was < 10%. The inhibition at 10 µM in the series with RXF 393 is < 10%. The inhibition at 10 µM in the series on SW-620 was < 10%. Besides, the inhibition at 10 µM in the series with MDA-MB-231-ATCC is < 10%. For the same compound, in the series on MCF-7, the inhibition at 10 µM was < 10%. Besides, in the series on TK-10, the inhibition at 10 µM was found to be 13.2%. Also, in the series on HCT-116, the inhibition at 10 µM was < 10%. For the same compound, in the series on SK-OV-3, the inhibition at 10 µM is < 10%. Further, the inhibition at 10 µM with MDA-MB-468 is < 10%. Further, the inhibition at 10 µM in the series with SF-539 was < 10%.

Usually inhibition stands for the percentage by which the read-out fell short of the control. One may read the melting point as the temperature of the solid-liquid transition.
